Measured values as given in patent publication US12545681B2, “Compound used as RET kinase inhibitor and application thereof” (TYK Medicines, Inc., priority 2020, dated 2026).
Where a chain is given by its changes, count along the chain named. Like-named read-outs stand apart in the source and are kept apart here.

How the values were obtained:
RET = conditions: cited from earlier work
Ba/F3-KIF5B-RET cells = assay: In vivo efficacy study, subcutaneous Ba/F3-KIF5B-RET tumor in nude mice; set-up: species or system BALB/c nude mice; conditions: 10 mg/kg P.O. BID x 3 weeks
Experimental: Cell culture: Ba/F3-KIF5B-RET cell line was cultured with 1640 medium (Biological Industries)+10%/f fetal bovine serum (BI)+1% double antibody (Penicillin Streptomycin solution, Corning, USA) at 37° C. with 5% CO2. Two passages were performed for one week. When the cell saturation was 80%-90% and the number reached the required level, the cells were collected, counted and inoculated.
Animals: BALB/c nude mice, female, 6-8 weeks of age, weighing 18-22 g. A total of 18 mice were required, provided by Beijing Vital River Laboratory Animal Technology Co., Ltd.
Tumor inoculation: 0.2 ml (2×106) Ba/F3-KIF5B-RET cells (plus stromal gel, volume ratio 1:1) were inoculated subcutaneously on the right posterior dorsum of each mouse, and group dosing was started when the average tumor volume reached about 150-200 mm^3.
Experimental index: Tumor volume and body weight were measured twice a week. Tumor volume was measured by vernier calipers with the formula TV=0.5 a×b2, where a is the long diameter of the tumor and b is the short diameter of the tumor.

Ba/F3-KIF5B-RET-V804L = molecular target: T1, Ba/F3-KIF5B-RET-V804L (Homo sapiens, UniProt P07949, V804L); assay: Cell anti-proliferation (CellTiter-Glo), Ba/F3-KIF5B-RET-V804L cells; format: cell-based; conditions: cell viability, 72 h incubation
T1 construct: KIF5B (fusion partner, N-terminal part of kinesin-1 heavy chain, P33176); host or cells: Ba/F3 (murine pro-B cells); the other entry of the earlier key: KIF5B (P33176, Kinesin-1 heavy chain)
T1 sequence (P07949 713-1063 V804L limits assumed): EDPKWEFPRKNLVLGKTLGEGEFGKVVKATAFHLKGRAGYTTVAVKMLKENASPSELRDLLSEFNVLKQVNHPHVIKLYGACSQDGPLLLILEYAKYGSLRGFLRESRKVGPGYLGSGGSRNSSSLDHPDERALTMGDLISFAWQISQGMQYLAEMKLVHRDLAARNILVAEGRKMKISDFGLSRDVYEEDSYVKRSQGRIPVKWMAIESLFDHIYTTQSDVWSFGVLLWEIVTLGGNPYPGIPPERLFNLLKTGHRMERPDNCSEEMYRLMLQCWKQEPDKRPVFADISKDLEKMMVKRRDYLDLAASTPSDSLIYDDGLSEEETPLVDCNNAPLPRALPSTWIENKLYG
Experimental: (§1) Ba/F3-KIF5B-RET, Ba/F3-KIF5B-RET-V804L and Ba/F3-KIF5B-RET-V804M cells were constructed by PreceDo Pharmaceuticals Co., Ltd.
(§2) Ba/F3-KIF5B-RET, Ba/F3-KIF5B-RET-V804L and Ba/F3-KIF5B-RET-V804M medium: RPMI-1640+10% FBS+1% P/S.
(§3) A 1000×solution of the compound was prepared with DMSO, the compound was diluted to 20 times to obtain the final concentration with a growth medium, and 2 μl 1000×cpd was added to 98 μl growth medium.
(§4) Cells were centrifuged and resuspended with growth medium and cell counting was performed using a cell counter. The cell suspension was diluted with growth medium to the desired concentration. 95 uL of the diluted cell suspension was taken out to a 96-well plate. 5 μL of 20×compound solution was added to the 96-well plate to a final DMSO concentration of 0.1% per well. The 96-well plate was incubated for 72 h at 37° C. with 5% CO2.
(§5) The 96-well plate was equilibrated to room temperature before the assay, 50 μl of CellTiter-Glo® Reagent was added to each well, the cells were fully lysed by shaking for 2 minutes on a shaker, incubated for 10 minutes at room temperature, and Paradigm was used to detect and record the […] readings.
(§6) Cell viability was analyzed using Graphpad 7.0 software according to the formula Cell viability (CV %)=(RLU compound−RLU blank)/(RLU control−RLU blank)*100%, and the corresponding IC50 data were calculated, in Table 1, the following names are used: <10.00 nM=A; 10.01-50.0 nM=B; >50 nM=C.

Ba/F3-KIF5B-RET = molecular target: T2, Ba/F3-KIF5B-RET (Homo sapiens, UniProt P07949); assay: Cell anti-proliferation (CellTiter-Glo), Ba/F3-KIF5B-RET cells; format: cell-based; conditions: cell viability, 72 h incubation, CellTiter-Glo
T2 construct: KIF5B (fusion partner, N-terminal part of kinesin-1 heavy chain, P33176); host or cells: Ba/F3 (murine pro-B cells); the other entry of the earlier key: KIF5B (P33176, Kinesin-1 heavy chain)
T2 sequence (P07949 713-1063 limits assumed): T1 sequence (P07949 713-1063 V804L limits assumed) with L92V
Experimental: as §1, §2, §3, §4, §5, §6

Ba/F3-KIF5B-RET-V804M = molecular target: T3, Ba/F3-KIF5B-RET-V804M (Homo sapiens, UniProt P07949, V804M); assay: Cell anti-proliferation (CellTiter-Glo), Ba/F3-KIF5B-RET-V804M cells; format: cell-based; conditions: cell viability, 72 h incubation
T3 construct: KIF5B (fusion partner, N-terminal part of kinesin-1 heavy chain, P33176); host or cells: Ba/F3 (murine pro-B cells); the other entry of the earlier key: KIF5B (P33176, Kinesin-1 heavy chain)
T3 sequence (P07949 713-1063 V804M limits assumed): T1 sequence (P07949 713-1063 V804L limits assumed) with L92M
Experimental: as §1, §2, §3, §4, §5, §6

| Structure (SMILES) | overall remission rate (ORR) (RET; patients with medullary thyroid carcinoma) [%] | overall remission rate (ORR) (RET; patients with non-small cell lung cancer) [%] | overall remission rate (ORR) (RET; tumor patients with RET fusion and mutation) [%] | Tumor Volume(mm^3) 0 day (Ba/F3-KIF5B-RET cells) [mm^3] | Tumor Volume(mm^3) 2 days (Ba/F3-KIF5B-RET cells) [mm^3] | Tumor Volume(mm^3) 5 days (Ba/F3-KIF5B-RET cells) [mm^3] | Tumor Volume(mm^3) 9 days (Ba/F3-KIF5B-RET cells) [mm^3] | Tumor Volume(mm^3) 12 days (Ba/F3-KIF5B-RET cells) [mm^3] | Tumor Volume(mm^3) 16 days (Ba/F3-KIF5B-RET cells) [mm^3] | Tumor Volume(mm^3) 19 days (Ba/F3-KIF5B-RET cells) [mm^3] | Tumor Volume(mm^3) 22 days (Ba/F3-KIF5B-RET cells) [mm^3] | IC50 (Ba/F3-KIF5B-RET-V804L) [nM] | IC50 (Ba/F3-KIF5B-RET) [nM] | IC50 (Ba/F3-KIF5B-RET-V804M) [nM] |
| --- | --- | --- | --- | --- | --- | --- | --- | --- | --- | --- | --- | --- | --- | --- |
| CO[C@]1(C(=O)N[C@@H](C)c2ccc(-n3cc(F)cn3)nc2)CC[C@H](c2nc(C)cc(Nc3cc(C)[nH]n3)n2)CC1 [BLU-667] | 40 | 50 | 45 |  |  |  |  |  |  |  |  |  |  |  |
| CO[C@]1(C(=O)N[C@@H](C)c2ccc(-n3cc(F)cn3)nc2)CC[C@H](c2nc(Nc3cc(C)[nH]n3)c3cnn(C)c3n2)CC1 [Compound C1] |  |  |  | 168.34 | 162.57 | 139.55 | 189.12 | 222.35 | 203.41 | 199.75 | 199.64 | < 10 | < 10 | < 10 |
| CO[C@]1(C(=O)N[C@@H](C)c2ccc(-n3cc(F)cn3)nc2)CC[C@H](c2nc(Nc3cc(C)[nH]n3)c3ccn(C)c3n2)CC1 [Control Example 1, reference compound] |  |  |  | 169.95 | 157.73 | 144.57 | 185.92 | 204.18 | 272.83 | 277.52 | 292.41 | < 10 | < 10 | < 10 |
| CCn1ncc2c(Nc3cc(C)[nH]n3)nc([C@H]3CC[C@](OC)(C(=O)N[C@@H](C)c4cnc(-n5cc(F)cn5)s4)CC3)nc21 [Compound C13] |  |  |  |  |  |  |  |  |  |  |  | < 10 | < 10 | 10 to 50 |
| [2H]C([2H])([2H])n1ncc2c(Nc3cc(C)[nH]n3)nc([C@H]3CC[C@](OC)(C(=O)N[C@@H](C)c4ccc(-n5cc(F)cn5)nc4)CC3)nc21 [Compound C3] |  |  |  |  |  |  |  |  |  |  |  | < 10 | < 10 | < 10 |
| CO[C@]1(C(=O)N[C@@H](C)c2ccc(-n3cc(F)cn3)nc2)CC[C@H](c2nc(Nc3cc(C)[nH]n3)c3cnn(CC(F)F)c3n2)CC1 [Compound C6] |  |  |  |  |  |  |  |  |  |  |  | < 10 | < 10 | < 10 |
| CCn1ncc2c(Nc3cc(C)[nH]n3)nc([C@H]3CC[C@](OC)(C(=O)N[C@@H](C)c4ccc(-n5cc(F)cn5)nc4)CC3)nc21 [Compound C4] |  |  |  |  |  |  |  |  |  |  |  | < 10 | < 10 | < 10 |
| [2H]C([2H])([2H])n1ncc2c(Nc3cc(C)[nH]n3)nc([C@H]3CC[C@](OC)(C(=O)N[C@@H](C)c4cnc(-n5cc(F)cn5)cn4)CC3)nc21 [Compound C9] |  |  |  |  |  |  |  |  |  |  |  | < 10 | < 10 | < 10 |
